Measured values published in publication PMC2694832, “Pharmacokinetics, tissue distribution and mass balance of radiolabeled dihydroartemisinin in male rats” (Malaria Journal, 2009).
Several values for one entry are separate records, joined by “and”; a condition that tells them apart may be missing. Equal entries are not always repeated.

How the values were obtained:
[1] = Mass balance and urinary/faecal elimination of [^14C] DHA; assay type: in vivo, rats; settings: rats i.v. 3 mg/kg
Method: Metabolic cages were washed with a solution of 2% Count-off® (Perkin-Elmer Life and Analytical Sciences, Boston, Massachusetts, USA) and the volume was measured. Duplicate portions (0.1 ml urine; 1 ml cage rinse) of each sample were radio-assayed after the addition of scintillation cocktail. The weights of individual faecal samples were obtained and the samples were subsequently homogenized in four volumes of de-ionized water. Quadruplicate portions (1.0 ml) of each homogenate were decolourized with 30% hydrogen peroxide, and digested with Solvable® tissue solubilizer. After acidification with glacial acetic acid and addition of scintillation cocktail, samples were assayed for radioactivity. The samples were kept in at -20°C for two weeks prior to analysis.

rat plasma proteins = assay: Protein binding of [^14C] DHA, equilibrium dialysis, rat plasma; assay type: in vitro ADME; settings: undiluted rat plasma, 0.15 to 57800 ng/ml, 37°C, five hours
Method: Human blood samples (five men and five women) were freshly obtained from subject volunteers at the Department of Clinical Trials, WRAIR. Rat samples were freshly collected from five male and five female rats. Equilibrium dialysis was performed using Teflon dialysis chambers and Diachema standard membranes as described by Li and Hümpel. The GD-4/90 Equilibrium Dialyzer (MM Developments, Ottawa) contained 20 micro-dialysis cells (2.0 ml/chamber). The molecular weight cutoff for dialysis membranes was 5000 D. Equilibrium was reached after four hours, when cells were rotated at 16 rpm and 37°C. Drugs were dissolved in plasma samples with various concentrations (0.15 – 57800 ng/ml) and all experiments were carried out for five hours.

[2] = Feces, listed as [^14C] dihydroartemisinin, 3 mg/kg
[3] = Total, through 192 hours, 3 mg/kg
[4] = Total, through 192 hours, listed as [^14C] dihydroartemisinin, 3 mg/kg
[5] = Urine, listed as [^14C] dihydroartemisinin, 3 mg/kg

SMILES: C[C@@H]1CC[C@H]2[C@@H]([14CH3])C(O)O[C@@H]3O[C@@]4(C)CC[C@@H]1[C@]32OO4 (stereo partly drawn) [[^14C] DHA, [16-^14C] DHA]
- Fecal excretion of total radiolabel (Feces) ([1]; 0.04–0.33 days): 1.52 ± 0.58 % of dose
- Fecal excretion of total radiolabel (Feces) ([1]; 0.33–1.0 days): 29.56 ± 11.75 % of dose
- Fecal excretion of total radiolabel (Feces) ([1]; 1–2 days): 6.14 ± 1.71 % of dose
- Fecal excretion of total radiolabel (Feces) ([1]; 2–3 days): 1.64 ± 0.78 % of dose
- Fecal excretion of total radiolabel (Feces) ([1]; 3–4 days): 0.78 ± 0.31 % of dose
- Fecal excretion of total radiolabel (Feces) ([1]; 4–5 days): 0.46 ± 0.09 % of dose
- Fecal excretion of total radiolabel (Feces) ([1]; 5–6 days): 0.15 ± 0.06 % of dose
- Fecal excretion of total radiolabel (Feces) ([1]; 6–7 days): 0.11 ± 0.05 % of dose
- Fecal excretion of total radiolabel (Feces) ([1]; 7–8 days): 0.04 ± 0.04 % of dose
- Peak height ([1]; Feces, 3 mg/kg): 292.39 μg/rat
- Peak time ([1]; Feces, 3 mg/kg): 0.67 days
- Peak height [1, 2]: 292.39 ± 150.29 μg/rat
- Peak time [1, 2]: 0.67 ± 0.09 days
- Fecal excretion of total radiolabel (Feces) [1, 3]: ~40.39 % of dose and ~40 % of dose
- Total radiolabel in Cage wash [1, 3]: ~1.88 % of dose
- Fecal excretion of total radiolabel (Feces) [1, 4]: 40.39 ± 13.22 % of dose
- Total radiolabel in Cage wash [1, 4]: 1.88 ± 2.27 % of dose
- Peak time ([1]; Urine, 3 mg/kg): 0.37 days
- Peak height [1, 5]: 234.48 ± 33.74 μg/rat
- Peak time [1, 5]: 0.37 ± 0.06 days
- lag time of elimination ([1]; faeces): 0.31 days
- Ratio of excretion (urine/feces) [1]: 1.37 ± 0.39
- faecal excretion, range among animals ([1]; through 192 hours): 27–53 % of the administered dose
- urinary excretion, range among animals ([1]; through 192 hours): 44–61 % of the administered dose
- total dose excreted within first 24 hours ([1]; urine and faeces): greater than 74.76%
- lag time of elimination ([1]; urine): < 0.02 days
- plasma protein binding percentage (rat plasma proteins): 76–82%
